Assay results published in patent publication US20250346593A1, “IMIDAZO(1,2-1)PYRIDINE DERIVATIVES AS RIPK2 INHIBITORS” (Interline Therapeutics, Inc., priority 2022, published 2025).
Read-outs that look alike come from different tables or passages of the source.

Tests used:
[1] = tested on: NF-κB pathway (SEAP) in THP1-Dual cells; assay: THP-1 Dual cell SEAP assay (L18-MDP stimulated); format: cell-based; conditions: Homo sapiens, THP1-Dual, read-out: NFkB THP1 IC50
[2] = biological target: GST-RIPK2 fusion protein (human RIPK2 amino acids 1-310) (Homo sapiens (Human), UniProt O43353); assay: RIPK2 binding competition assay (TR-FRET, Tracer 199)
Chain of GST-RIPK2 fusion protein (human RIPK2 amino acids 1-310) (O43353 1-310): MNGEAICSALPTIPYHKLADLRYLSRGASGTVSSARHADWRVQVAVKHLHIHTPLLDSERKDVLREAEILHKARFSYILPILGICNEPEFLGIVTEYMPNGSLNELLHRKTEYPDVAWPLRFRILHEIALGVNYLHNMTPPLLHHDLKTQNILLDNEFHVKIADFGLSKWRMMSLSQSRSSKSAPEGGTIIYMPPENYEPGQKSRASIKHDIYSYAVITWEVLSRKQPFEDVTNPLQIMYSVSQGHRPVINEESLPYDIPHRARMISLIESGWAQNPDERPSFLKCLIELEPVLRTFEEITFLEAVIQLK

[3] = read-out: RIPK2 IC50, RIPK2 binding competition assay

Row | IC50 [1] | IC50 [2] | SMILES | IC50 [2, 3]
1 | > 1000 nM | > 20 nM | CCCS(=O)(=O)Nc1c(F)ccc(-c2cnc3cc(OC)c(S(=O)(=O)C(C)(C)C)cn23)c1F [Example 255, N-(3-(6-(tert-butylsulfonyl)-7-methoxyimidazo[1,2-a]pyridin-3-yl)-2,6-difluorophenyl)propane-1-sulfonamide] | –
2 | 250 to 1000 nM | 2.5 to 20 nM | CCCS(=O)(=O)Nc1cc(-c2cnc3cc(OC)c(S(=O)(=O)C(C)(C)C)cn23)cc(C#N)c1OC [Example 259, N-(5-(6-(tert-butylsulfonyl)-7-methoxyimidazo[1,2-a]pyridin-3-yl)-3-cyano-2-methoxyphenyl)propane-1-sulfonamide] | –
3 | 250 to 1000 nM | 2.5 to 20 nM | CCCS(=O)(=O)Nc1cc(-c2cnc3cc(OC)c(S(=O)(=O)C(C)(C)C)cn23)cc(F)c1C [Example 262, N-(5-(6-(tert-butylsulfonyl)-7-methoxyimidazo[1,2-a]pyridin-3-yl)-3-fluoro-2-methylphenyl)propane-1-sulfonamide] | –
4 | 250 to 1000 nM | 2.5 to 20 nM | CCCS(=O)(=O)Nc1c(F)c(-c2cnc3cc(OC)c(S(=O)(=O)C(C)(C)C)cn23)cc(F)c1OC [Example 263, N-(3-(6-(tert-butylsulfonyl)-7-methoxyimidazo[1,2-a]pyridin-3-yl)-2,5-difluoro-6-methoxyphenyl)propane-1-sulfonamide] | –
5 | 50 to 250 nM | 2.5 to 20 nM | CCCS(=O)(=O)Nc1cc(-c2cnc3cc(OC)c(S(=O)(=O)C(C)(C)C)cn23)cnc1OC [Example 265, N-(5-(6-(tert-butylsulfonyl)-7-methoxyimidazo[1,2-a]pyridin-3-yl)-2-methoxypyridin-3-yl)propane-1-sulfonamide] | –
6 | 250 to 1000 nM | 1 to 2.5 nM | CCCS(=O)(=O)Nc1cc(-c2cnc3cc(OC)c(S(=O)(=O)C(C)(C)C)cn23)cc(F)c1F [Example 266, N-(5-(6-(tert-butylsulfonyl)-7-methoxyimidazo[1,2-a]pyridin-3-yl)-2,3-difluorophenyl)propane-1-sulfonamide] | –
7 | 250 to 1000 nM | 1 to 2.5 nM | CCCS(=O)(=O)Nc1cc(-c2cnc3cc(OC)c(S(=O)(=O)C(C)(C)C)cn23)cc(OC)c1F [Example 267, N-(5-(6-(tert-butylsulfonyl)-7-methoxyimidazo[1,2-a]pyridin-3-yl)-2-fluoro-3-methoxyphenyl)propane-1-sulfonamide] | –
8 | 50 to 250 nM | 1 to 2.5 nM | CCCS(=O)(=O)Nc1cc(-c2cnc3cc(OC)c(S(=O)(=O)C(C)(C)C)cn23)cc(C)c1OC [Example 268, N-(5-(6-(tert-butylsulfonyl)-7-methoxyimidazo[1,2-a]pyridin-3-yl)-2-methoxy-3-methylphenyl)propane-1-sulfonamide] | –
9 | 250 to 1000 nM | 1 to 2.5 nM | CCCS(=O)(=O)Nc1cccc(-c2cnc3cc(OC)c(S(=O)(=O)C(C)(C)C)cn23)c1 [Example 269, N-(3-(6-(tert-butylsulfonyl)-7-methoxyimidazo[1,2-a]pyridin-3-yl)phenyl)propane-1-sulfonamide] | –
10 | 250 to 1000 nM | 1 to 2.5 nM | CCCS(=O)(=O)Nc1cc(-c2cnc3cc(OC)c(S(=O)(=O)C(C)(C)C)cn23)cc(F)c1OCC [Example 270, N-(5-(6-(tert-butylsulfonyl)-7-methoxyimidazo[1,2-a]pyridin-3-yl)-2-ethoxy-3-fluorophenyl)propane-1-sulfonamide] | –
11 | < 50 nM | 1 to 2.5 nM | CCCS(=O)(=O)Nc1cc(-c2cnc3cc(OC)c(S(=O)(=O)C(C)(C)C)cn23)ccc1OC(F)F [Example 271, N-(5-(6-(tert-butylsulfonyl)-7-methoxyimidazo[1,2-a]pyridin-3-yl)-2-(difluoromethoxy)phenyl) propane-1-sulfonamide] | –
12 | 50 to 250 nM | < 1 nM | CCCS(=O)(=O)Nc1cc(-c2cnc3cc(OC)c(S(=O)(=O)C4CC4)cn23)cc(OC)c1OC [Example 274, N-(5-(6-(cyclopropylsulfonyl)-7-methoxyimidazo[1,2-a]pyridin-3-yl)-2,3-dimethoxyphenyl)propane-1-sulfonamide] | –
13 | < 50 nM | < 1 nM | CCCS(=O)(=O)Nc1cc(-c2cnc3cc(OC)c(S(=O)(=O)C(C)(C)C)cn23)cc(F)c1OC [Example 275, N-(5-(6-(tert-butylsulfonyl)-7-methoxyimidazo[1,2-a]pyridin-3-yl)-3-fluoro-2-methoxyphenyl)propane-1-sulfonamide] | –

Row | SMILES | IC50 [1] | IC50 [2] | IC50 [2, 3]
14 | COc1cc2ncc(-c3cc(NCCCO)cc(F)n3)n2cc1S(=O)(=O)C(C)(C)C [Example 252, 3-((2-(6-(tert-butylsulfonyl)-7-methoxyimidazo[1,2-a]pyridin-3-yl)-6-fluoropyridin-4-yl)amino)propan-1-ol] | 250 to 1000 nM | – | > 20 nM
15 | CCCS(=O)(=O)Nc1cc(-c2cnc3cc(OC)c(S(=O)(=O)C(C)(C)C)cn23)cnc1N [Example 253, N-(2-amino-5-(6-(tert-butylsulfonyl)-7-methoxyimidazo[1,2-a]pyridin-3-yl)pyridin-3-yl)propane-1-sulfonamide] | > 1000 nM | – | > 20 nM
16 | CCCS(=O)(=O)Nc1cncc(-c2cnc3cc(OC)c(S(=O)(=O)C(C)(C)C)cn23)c1 [Example 254] | > 1000 nM | – | > 20 nM
17 | CCCS(=O)(=O)N(C)c1cccc(-c2cnc3cc(OC)c(S(=O)(=O)C(C)(C)C)cn23)c1 [Example 256, N-(3-(6-(tert-butylsulfonyl)-7-methoxyimidazo[1,2-a]pyridin-3-yl)phenyl)-N-methylpropane-1-sulfonamide] | > 1000 nM | – | > 20 nM
18 | CCCS(=O)(=O)Nc1c(OC)ccc(-c2cnc3cc(OC)c(S(=O)(=O)C(C)(C)C)cn23)c1F [Example 257, N-(3-(6-(tert-butylsulfonyl)-7-methoxyimidazo[1,2-a]pyridin-3-yl)-2-fluoro-6-methoxyphenyl)propane-1-sulfonamide] | > 1000 nM | – | > 20 nM
19 | CCCS(=O)(=O)Nc1cccc(-c2cnc3cc(OC)c(S(=O)(=O)C(C)(C)C)cn23)c1F [Example 258, N-(3-(6-(tert-butylsulfonyl)-7-methoxyimidazo[1,2-a]pyridin-3-yl)-2-fluorophenyl)propane-1-sulfonamide] | > 1000 nM | – | > 20 nM
20 | COc1cc2ncc(-c3cc(C#N)c(OC)c(NS(C)(=O)=O)c3)n2cc1S(=O)(=O)C(C)(C)C [Example 260, N-(5-(6-(tert-butylsulfonyl)-7-methoxyimidazo[1,2-a]pyridin-3-yl)-3-cyano-2-methoxyphenyl)methane-sulfonamide] | > 1000 nM | 2.5 to 20 nM | –
21 | COc1cc2ncc(-c3cccc(NS(C)(=O)=O)c3)n2cc1S(=O)(=O)C(C)(C)C [Example 261, N-(3-(6-(tert-butylsulfonyl)-7-methoxyimidazo[1,2-a]pyridin-3-yl)phenyl)methanesulfon-amide] | > 1000 nM | 2.5 to 20 nM | –
22 | COc1cc(-c2cnc3cc(OC)c(S(=O)(=O)C(C)(C)C)cn23)cc(NS(C)(=O)=O)n1 [Example 264, N-(4-(6-(tert-butylsulfonyl)-7-methoxyimidazo[1,2-a]pyridin-3-yl)-6-methoxypyridin-2-yl)methanesulfonamide] | 250 to 1000 nM | 2.5 to 20 nM | –
23 | COc1cc2ncc(-c3cc(F)c(OC)c(NS(C)(=O)=O)c3)n2cc1S(=O)(=O)C(C)(C)C [Example 272, N-(5-(6-(tert-butylsulfonyl)-7-methoxyimidazo[1,2-a]pyridin-3-yl)-3-fluoro-2-methoxyphenyl)methane-sulfonamide] | 50 to 250 nM | 1 to 2.5 nM | –
